Results taken from the supplement of paper PMC4862054.
Where “and” joins values, the source holds several entries; their conditions need not be identical. Equal entries are not always repeated.

Tests used:
Details in all cases: incubation time: 72 h
BT-474 [1] = assay: normalised viability (% of control), CellTiter-Blue; higher = more viable cells (about 100 = DMSO control)
Method in brief: (§1)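 Breast cancer cell lines were treated for 72 h in 384-well format and measured by CellTiter-Blue fluorescence at 560/590 nm. Results were normalised per plate to vehicle (100) and a positive kill control (0). The entry is normalised viability at a single listed concentration of the series.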

CAL-51 [2] = assay: as above
Method in brief: as §1

CAL-85-1 [3] = assay: as above
Method in brief: as §1

HCC1143 = assay: as above
Method in brief: as §1

HCC1599 [4] = assay: as above
Method in brief: as §1

HCC1937 [5] = assay: as above
Method in brief: as §1

HDQ-P1 [6] = assay: as above
Method in brief: as §1

MDA-MB-436 [7] = assay: as above
Method in brief: as §1

SK-BR-3 [8] = assay: as above
Method in brief: as §1

BT-474 [9] = assay: drug sensitivity score (DSS), CellTiter-Glo (DSS (AUC-based score)); higher = stronger drug effect (viability inhibition or cytotoxicity); extreme values may be limits of the assay
Method in brief: (§2)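 Breast cancer cells were seeded into 384-well plates containing compound at 5 concentrations in 10-fold steps over a compound-specific 10,000-fold range and incubated 72 h. After CellTox Green and CellTiter-Glo readings, each plate was normalised to 0.1 % DMSO and a positive kill control. The drug sensitivity score rests on the area under the fitted dose-response curve.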

BT-549 = assay: as above
Method in brief: as §2

CAL-120 = assay: as above
Method in brief: as §2

CAL-148 = assay: as above
Method in brief: as §2

CAL-51 [10] = assay: as above
Method in brief: as §2

CAL-85-1 [11] = assay: as above
Method in brief: as §2

DU-4475 = assay: as above
Method in brief: as §2

HCC1599 [12] = assay: as above
Method in brief: as §2

HCC1937 [13] = assay: as above
Method in brief: as §2

HDQ-P1 [14] = assay: as above
Method in brief: as §2

Hs578T = assay: as above
Method in brief: as §2

MDA-MB-231 = assay: as above
Method in brief: as §2

MDA-MB-436 [15] = assay: as above
Method in brief: as §2

MDA-MB-453 = assay: as above
Method in brief: as §2

MFM-223 = assay: as above
Method in brief: as §2

SK-BR-3 [16] = assay: as above
Method in brief: as §2

## CC(=O)[C@]1(O)Cc2c(O)c3c(c(O)c2[C@@H](O[C@H]2C[C@H](N)[C@H](O)[C@H](C)O2)C1)C(=O)c1ccccc1C3=O [Idarubicin]
BT-474 [1]; 1 nM
  normalised viability: 97.3%
BT-474 [1]; 100 nM
  normalised viability: 61.8%
BT-474 [1]; 1000 nM
  normalised viability: 7.38%
CAL-51 [2]; 0.3 nM
  normalised viability: 106%
CAL-51 [2]; 3 nM
  normalised viability: 98%
CAL-51 [2]; 10 nM
  normalised viability: 44.2%
CAL-85-1 [3]; 0.3 nM
  normalised viability: 104%
CAL-85-1 [3]; 3 nM
  normalised viability: 91.9%
CAL-85-1 [3]; 10 nM
  normalised viability: 94.3%
HCC1143; 1 nM
  normalised viability: 96%
HCC1143; 100 nM
  normalised viability: 61%
HCC1143; 1000 nM
  normalised viability: 30.1%
HCC1599 [4]; 1 nM
  normalised viability: 111%
HCC1599 [4]; 100 nM
  normalised viability: 102%
HCC1599 [4]; 1000 nM
  normalised viability: 49.2%
HCC1937 [5]; 1 nM
  normalised viability: 90.3%
HCC1937 [5]; 100 nM
  normalised viability: 22.1%
HCC1937 [5]; 1000 nM
  normalised viability: 21.3%
HDQ-P1 [6]; 0.3 nM
  normalised viability: 118%
HDQ-P1 [6]; 3 nM
  normalised viability: 120%
HDQ-P1 [6]; 10 nM
  normalised viability: 104%
MDA-MB-436 [7]; 1 nM
  normalised viability: 113%
MDA-MB-436 [7]; 100 nM
  normalised viability: 57.5%
MDA-MB-436 [7]; 1000 nM
  normalised viability: 18.8%
SK-BR-3 [8]; 1 nM
  normalised viability: 107%
SK-BR-3 [8]; 100 nM
  normalised viability: 26.4%
SK-BR-3 [8]; 1000 nM
  normalised viability: 4.23%
BT-474 [9]
  drug sensitivity score: 4.44
BT-549
  drug sensitivity score: 9.35
CAL-120
  drug sensitivity score: 1.91
CAL-148
  drug sensitivity score: 10.5
CAL-51 [10]
  drug sensitivity score: 14.5
CAL-85-1 [11]
  drug sensitivity score: 6.75
DU-4475
  drug sensitivity score: 8.12
HCC1599 [12]
  drug sensitivity score: 3.71
HCC1937 [13]
  drug sensitivity score: 2.31
HDQ-P1 [14]
  drug sensitivity score: 1.38
Hs578T
  drug sensitivity score: 6.15
MDA-MB-231
  drug sensitivity score: 4.79
MDA-MB-436 [15]
  drug sensitivity score: 8.24
MDA-MB-453
  drug sensitivity score: 1.75
MFM-223
  drug sensitivity score: 3.67
SK-BR-3 [16]
  drug sensitivity score: 7.9

## O=C(CCCCCCC(=O)Nc1ccccc1)NO [Vorinostat]
BT-474 [1]; 10 nM
  normalised viability: 98.6% and 105%
BT-474 [1]; 1000 nM
  normalised viability: 92.6% and 78.7%
BT-474 [1]; 10000 nM
  normalised viability: 3.63% and 2.44%
CAL-51 [2]; 3 nM
  normalised viability: 113% and 102%
CAL-51 [2]; 30 nM
  normalised viability: 102%
CAL-51 [2]; 100 nM
  normalised viability: 106% and 97.5%
CAL-85-1 [3]; 3 nM
  normalised viability: 91% and 103%
CAL-85-1 [3]; 30 nM
  normalised viability: 85.7% and 96.9%
CAL-85-1 [3]; 100 nM
  normalised viability: 100% and 106%
HCC1143; 10 nM
  normalised viability: 86.1% and 105%
HCC1143; 1000 nM
  normalised viability: 86.9% and 84.5%
HCC1143; 10000 nM
  normalised viability: 21.4% and 24.2%
HCC1599 [4]; 10 nM
  normalised viability: 110% and 97.9%
HCC1599 [4]; 1000 nM
  normalised viability: 85.5% and 99.2%
HCC1599 [4]; 10000 nM
  normalised viability: 20.5%
HCC1937 [5]; 10 nM
  normalised viability: 73% and 92.4%
HCC1937 [5]; 1000 nM
  normalised viability: 77.7% and 63.4%
HCC1937 [5]; 10000 nM
  normalised viability: 24.6% and 22.7%
HDQ-P1 [6]; 3 nM
  normalised viability: 99.4% and 88.7%
HDQ-P1 [6]; 30 nM
  normalised viability: 97.2% and 84.3%
HDQ-P1 [6]; 100 nM
  normalised viability: 95.6% and 87.5%
MDA-MB-436 [7]; 10 nM
  normalised viability: 105% and 104%
MDA-MB-436 [7]; 10000 nM
  normalised viability: 41.3% and 40.6%
SK-BR-3 [8]; 10 nM
  normalised viability: 104% and 95.2%
SK-BR-3 [8]; 1000 nM
  normalised viability: 54.3% and 45.8%
SK-BR-3 [8]; 10000 nM
  normalised viability: 3.79% and 4.28%
BT-474 [9]
  drug sensitivity score: 4.8
BT-549
  drug sensitivity score: 1.14
CAL-120
  drug sensitivity score: 3.27
CAL-148
  drug sensitivity score: 5.5
CAL-51 [10]
  drug sensitivity score: 8.31
CAL-85-1 [11]
  drug sensitivity score: 4.06
DU-4475
  drug sensitivity score: 5.43
HCC1599 [12]
  drug sensitivity score: 4.43
HCC1937 [13]
  drug sensitivity score: 3.4
HDQ-P1 [14]
  drug sensitivity score: 2.32
Hs578T
  drug sensitivity score: 2.53
MDA-MB-231
  drug sensitivity score: 5.59
MDA-MB-436 [15]
  drug sensitivity score: 0
MDA-MB-453
  drug sensitivity score: 10.6
MFM-223
  drug sensitivity score: 3.32
SK-BR-3 [16]
  drug sensitivity score: 5.14

## O=[N+]([O-])c1ccc2c(c1)S(=O)(=O)C=C2 [Stattic]
BT-474 [9]
  drug sensitivity score: 9.26
BT-549
  drug sensitivity score: 20.4
CAL-120
  drug sensitivity score: 7.49
CAL-148
  drug sensitivity score: 11.9
CAL-51 [10]
  drug sensitivity score: 18.1
CAL-85-1 [11]
  drug sensitivity score: 17.8
DU-4475
  drug sensitivity score: 5.46
HCC1599 [12]
  drug sensitivity score: 7.71
HCC1937 [13]
  drug sensitivity score: 15.3
HDQ-P1 [14]
  drug sensitivity score: 6.75
Hs578T
  drug sensitivity score: 14
MDA-MB-231
  drug sensitivity score: 14.4
MDA-MB-436 [15]
  drug sensitivity score: 9.28
MDA-MB-453
  drug sensitivity score: 12.6
MFM-223
  drug sensitivity score: 14.8
SK-BR-3 [16]
  drug sensitivity score: 8.62

## CC(C)n1cnc2c(NCCc3ccc(O)cc3)nc(-c3csc4ccccc34)nc21 [StemRegenin 1]
BT-474 [9]
  drug sensitivity score: 0
BT-549
  drug sensitivity score: 3.44
CAL-120
  drug sensitivity score: 0
CAL-148
  drug sensitivity score: 0
CAL-51 [10]
  drug sensitivity score: 0
CAL-85-1 [11]
  drug sensitivity score: 0
DU-4475
  drug sensitivity score: 0
HCC1599 [12]
  drug sensitivity score: 0
HCC1937 [13]
  drug sensitivity score: 1.53
HDQ-P1 [14]
  drug sensitivity score: 1.2
Hs578T
  drug sensitivity score: 0
MDA-MB-231
  drug sensitivity score: 0
MDA-MB-436 [15]
  drug sensitivity score: 0.344
MDA-MB-453
  drug sensitivity score: 0.255
MFM-223
  drug sensitivity score: 1.58
SK-BR-3 [16]
  drug sensitivity score: 0

## CCn1c(C(=O)N(C2CC2)C2CC2)cc2c3c(ncn3C)c(Nc3cc(C)n(C)n3)nc21
BT-474 [9]
  drug sensitivity score: 0
BT-549
  drug sensitivity score: 0
CAL-120
  drug sensitivity score: 0
CAL-148
  drug sensitivity score: 0
CAL-51 [10]
  drug sensitivity score: 0
CAL-85-1 [11]
  drug sensitivity score: 0
DU-4475
  drug sensitivity score: 0
HCC1599 [12]
  drug sensitivity score: 0
HCC1937 [13]
  drug sensitivity score: 0
HDQ-P1 [14]
  drug sensitivity score: 0
Hs578T
  drug sensitivity score: 0
MDA-MB-231
  drug sensitivity score: 0
MDA-MB-436 [15]
  drug sensitivity score: 0
MDA-MB-453
  drug sensitivity score: 0
MFM-223
  drug sensitivity score: 0
SK-BR-3 [16]
  drug sensitivity score: 0

## CC[C@H](CO)Nc1nc(NCc2ccccc2)c2ncn(C(C)C)c2n1 [Roscovitine]
BT-474 [1]; 10 nM
  normalised viability: 109%
BT-474 [1]; 1000 nM
  normalised viability: 96.5%
BT-474 [1]; 10000 nM
  normalised viability: 79.4%
CAL-51 [2]; 3 nM
  normalised viability: 111%
CAL-51 [2]; 30 nM
  normalised viability: 105%
CAL-51 [2]; 100 nM
  normalised viability: 105%
CAL-85-1 [3]; 3 nM
  normalised viability: 93.3%
CAL-85-1 [3]; 30 nM
  normalised viability: 88.8%
CAL-85-1 [3]; 100 nM
  normalised viability: 90.8%
HCC1143; 10 nM
  normalised viability: 84.3%
HCC1143; 1000 nM
  normalised viability: 88.1%
HCC1143; 10000 nM
  normalised viability: 74.7%
HCC1599 [4]; 10 nM
  normalised viability: 109%
HCC1599 [4]; 1000 nM
  normalised viability: 95.8%
HCC1599 [4]; 10000 nM
  normalised viability: 64.4%
HCC1937 [5]; 10 nM
  normalised viability: 83.8%
HCC1937 [5]; 1000 nM
  normalised viability: 105%
HCC1937 [5]; 10000 nM
  normalised viability: 77.2%
HDQ-P1 [6]; 3 nM
  normalised viability: 101%
HDQ-P1 [6]; 30 nM
  normalised viability: 103%
HDQ-P1 [6]; 100 nM
  normalised viability: 98.3%
MDA-MB-436 [7]; 10 nM
  normalised viability: 107%
MDA-MB-436 [7]; 1000 nM
  normalised viability: 92.7%
MDA-MB-436 [7]; 10000 nM
  normalised viability: 79.4%
SK-BR-3 [8]; 10 nM
  normalised viability: 90.3%
SK-BR-3 [8]; 1000 nM
  normalised viability: 104%
SK-BR-3 [8]; 10000 nM
  normalised viability: 87%
